Measured values from US11033539B2, “Compounds of formulas (VII), (VIII), (IX), (XI), (XII), (XIII), and (XIV) as muscarinic receptor 4(M4) antagonists for treating neurological diseases” (Neurocrine Biosciences, Inc., priority 2015, dated 2021).

Columns and labels:
human M5 receptor = human M5 receptor (Homo sapiens (Human), UniProt P08912); experiment: Radioligand (tritiated N-methylscopolamine) binding assay, M5; details: CHO cell membranes expressing human M5; 1.5 nM tritiated N-methylscopolamine; 90 min, 37° C.; read-out: Ki against M5 receptor (Table 21, M5)
Protocol: (§1) Binding affinity (Ki) of compounds was measured by inhibition of radioligand binding to membranes from CHO cells expressing human M1, M2, M3, M4 and M5 receptors. Membranes were prepared by nitrogen cavitation and differential centrifugation as previously described (Hoare et al., Mol. Pharmacol. 2003 March; 63(3): 751-65). The radioligand employed was tritiated N-methylscopolamine, used at a concentration of 1.5 nM. A dose-response of twelve concentrations of compound was used, ranging from 10 μM to […]. The assay buffer was 50 mM HEPES, 100 mM NaCl, 5 mM MgCl2, 1 mM ethylenediaminetetraacetic acid, pH-adjusted to pH 7.4. Membranes, radioligand and compound were incubated together for 90 minutes at 37° C., in a total volume of 150 μl in a 96-well plate. Receptor-bound radioligand was then collected by harvesting the assay over glass fiber filters pretreated with polyethylenimine to trap the cell membranes, using rapid vacuum filtration. Harvesting and radioactivity counting was conducted as previously described (see, e.g., Hoare et al., Mol. Pharmacol. 2003 63(3):751-65); Erratum at Mol. Pharmacol. 2005 July; 68(1): 260).

human M3 receptor = human M3 receptor (Homo sapiens (Human), UniProt P20309); experiment: Radioligand (tritiated N-methylscopolamine) binding assay, M3; details: CHO cell membranes expressing human M3; 1.5 nM tritiated N-methylscopolamine; 90 min, 37° C.; read-out: Ki against M3 receptor (Table 21, M3)
Protocol: as §1

human M4 receptor = human M4 receptor (Homo sapiens (Human), UniProt P08173); experiment: Radioligand (tritiated N-methylscopolamine) binding assay, M4; details: Ki against the M4 receptor; membranes from CHO cells expressing human M4; tritiated N-methylscopolamine 1.5 nM; read-out: Ki
Method in brief: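 CHO membranes; 1.5 nM radioligand; 12-point compound dose-response, 10 μM to […]; HEPES/NaCl/MgCl2/EDTA buffer pH 7.4; 90 min, 37 °C. PEI-treated glass fiber filtration, radioactivity counting. Ki from inhibition of binding.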

human M1 receptor = human M1 receptor (Homo sapiens (Human), UniProt P11229); experiment: Radioligand (tritiated N-methylscopolamine) binding assay, M1; details: CHO cell membranes expressing human M1; 1.5 nM tritiated N-methylscopolamine; 90 min, 37° C.; read-out: Ki against M1 receptor (Table 21, M1)
Protocol: as §1

human M2 receptor = human M2 receptor (Homo sapiens (Human), UniProt P08172); experiment: Radioligand (tritiated N-methylscopolamine) binding assay, M2; details: CHO cell membranes expressing human M2; 1.5 nM tritiated N-methylscopolamine; 90 min, 37° C.; read-out: Ki against M2 receptor (Table 21, M2)
Protocol: as §1

Sequence of human M5 receptor (P08912 whole entry): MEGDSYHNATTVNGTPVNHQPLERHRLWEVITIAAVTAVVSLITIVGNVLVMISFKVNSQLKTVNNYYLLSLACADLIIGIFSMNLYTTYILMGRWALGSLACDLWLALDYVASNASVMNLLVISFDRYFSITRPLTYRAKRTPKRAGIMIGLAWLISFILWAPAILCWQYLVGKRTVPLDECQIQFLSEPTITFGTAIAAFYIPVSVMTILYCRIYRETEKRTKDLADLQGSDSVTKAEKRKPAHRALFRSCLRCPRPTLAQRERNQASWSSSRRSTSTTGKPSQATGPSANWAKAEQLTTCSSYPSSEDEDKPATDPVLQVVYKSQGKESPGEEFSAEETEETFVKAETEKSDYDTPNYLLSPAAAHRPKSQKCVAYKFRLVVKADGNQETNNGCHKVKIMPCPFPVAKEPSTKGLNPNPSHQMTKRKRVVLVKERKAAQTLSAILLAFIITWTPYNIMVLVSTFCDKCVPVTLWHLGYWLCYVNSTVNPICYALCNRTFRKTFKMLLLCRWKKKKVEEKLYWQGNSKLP
Sequence of human M4 receptor (P08173 whole entry): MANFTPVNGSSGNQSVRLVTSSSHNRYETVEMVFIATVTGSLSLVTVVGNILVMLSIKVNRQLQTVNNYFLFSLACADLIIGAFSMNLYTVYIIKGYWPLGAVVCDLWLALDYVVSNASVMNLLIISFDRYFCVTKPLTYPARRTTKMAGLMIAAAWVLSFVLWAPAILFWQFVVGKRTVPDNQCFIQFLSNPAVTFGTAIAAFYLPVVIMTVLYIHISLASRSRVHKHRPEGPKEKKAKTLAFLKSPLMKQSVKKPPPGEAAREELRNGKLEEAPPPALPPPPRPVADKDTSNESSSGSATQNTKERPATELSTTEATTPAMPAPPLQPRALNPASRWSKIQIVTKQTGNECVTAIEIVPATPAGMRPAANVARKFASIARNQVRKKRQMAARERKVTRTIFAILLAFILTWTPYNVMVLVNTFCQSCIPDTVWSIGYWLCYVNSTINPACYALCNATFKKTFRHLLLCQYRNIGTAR
Sequence of human M2 receptor (P08172 whole entry): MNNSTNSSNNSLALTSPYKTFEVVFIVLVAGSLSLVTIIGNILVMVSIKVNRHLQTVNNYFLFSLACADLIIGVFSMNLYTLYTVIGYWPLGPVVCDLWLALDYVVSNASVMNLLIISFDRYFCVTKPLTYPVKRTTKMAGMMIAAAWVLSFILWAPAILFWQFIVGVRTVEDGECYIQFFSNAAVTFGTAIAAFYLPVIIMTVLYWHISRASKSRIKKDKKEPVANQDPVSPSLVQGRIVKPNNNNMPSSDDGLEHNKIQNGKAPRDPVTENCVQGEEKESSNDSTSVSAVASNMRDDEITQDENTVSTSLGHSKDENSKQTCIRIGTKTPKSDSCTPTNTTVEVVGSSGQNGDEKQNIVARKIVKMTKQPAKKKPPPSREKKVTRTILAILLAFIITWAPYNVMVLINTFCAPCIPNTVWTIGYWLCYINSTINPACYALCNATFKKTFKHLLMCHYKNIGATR
Sequence of human M3 receptor (P20309 whole entry): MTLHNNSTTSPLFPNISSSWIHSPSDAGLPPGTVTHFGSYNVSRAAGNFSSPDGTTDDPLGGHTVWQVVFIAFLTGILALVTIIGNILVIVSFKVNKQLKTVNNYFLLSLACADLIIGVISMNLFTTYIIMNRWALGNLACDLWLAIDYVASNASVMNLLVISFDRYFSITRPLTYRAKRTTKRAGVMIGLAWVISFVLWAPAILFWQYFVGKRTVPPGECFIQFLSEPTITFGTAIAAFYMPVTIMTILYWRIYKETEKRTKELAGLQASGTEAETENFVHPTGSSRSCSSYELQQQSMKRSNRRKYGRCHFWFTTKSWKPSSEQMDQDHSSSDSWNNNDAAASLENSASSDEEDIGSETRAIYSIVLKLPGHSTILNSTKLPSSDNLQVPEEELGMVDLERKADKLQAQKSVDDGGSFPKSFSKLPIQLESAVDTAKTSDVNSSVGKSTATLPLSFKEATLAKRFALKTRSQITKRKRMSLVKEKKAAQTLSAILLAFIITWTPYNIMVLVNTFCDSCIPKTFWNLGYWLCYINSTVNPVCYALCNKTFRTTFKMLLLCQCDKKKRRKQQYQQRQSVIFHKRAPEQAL
Sequence of human M1 receptor (P11229 whole entry): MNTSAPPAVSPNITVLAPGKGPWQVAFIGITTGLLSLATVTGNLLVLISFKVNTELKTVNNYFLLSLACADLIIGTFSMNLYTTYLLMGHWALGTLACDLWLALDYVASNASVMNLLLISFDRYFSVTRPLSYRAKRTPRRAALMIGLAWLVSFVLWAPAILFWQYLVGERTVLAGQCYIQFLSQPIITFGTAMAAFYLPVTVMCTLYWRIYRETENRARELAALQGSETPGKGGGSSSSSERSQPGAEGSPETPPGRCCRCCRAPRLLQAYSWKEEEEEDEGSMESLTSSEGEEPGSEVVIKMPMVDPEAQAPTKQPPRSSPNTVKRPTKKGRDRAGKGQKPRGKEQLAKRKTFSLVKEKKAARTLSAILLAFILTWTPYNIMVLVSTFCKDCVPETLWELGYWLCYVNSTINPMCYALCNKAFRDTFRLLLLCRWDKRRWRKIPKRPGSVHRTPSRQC

Compound	Ki (human M5 receptor)	Ki (human M3 receptor)	Ki (human M4 receptor)	Ki (human M1 receptor)	Ki (human M2 receptor)
C[C@@H]1CN(c2ccc(OC(F)(F)F)c(C#N)c2)CCN1C(=O)NCCC1CCN(Cc2ccccc2)CC1 [3-1, (2R)-N-[2-(1-benzylpiperidin-4-yl)ethyl]-4-[3-cyano-4-(trifluoromethoxy)phenyl]-2-methylpiperazine-1-carboxamide]	> 1000 nM	> 1000 nM	< 10 nM	100 to 1000 nM	10 to 100 nM
C[C@@H]1CN(c2ccc(OC(F)(F)F)c(C#N)c2)CCN1C(=O)NCCC1(O)CCN(Cc2ccccc2)CC1 [3-5, (2R)-N-[2-(1-benzyl-4-hydroxypiperidin-4-yl)ethyl]-4-[3-cyano-4-(trifluoromethoxy)phenyl]-2-methylpiperazine-1-carboxamide]	> 1000 nM	> 1000 nM	< 10 nM	> 1000 nM	100 to 1000 nM
C[C@@H]1CN(c2ccc(OC(F)(F)F)nc2)CCN1C(=O)NCCC1CCN(Cc2ccccc2)CC1 [3-8, (2R)-N-[2-(1-benzylpiperidin-4-yl)ethyl]-2-methyl-4-[6-(trifluoromethoxy)pyridin-3-yl]piperazine-1-carboxamide]	> 1000 nM	100 to 1000 nM	< 10 nM	100 to 1000 nM	10 to 100 nM
C[C@@H]1CN(c2ncc(C(F)(F)F)cn2)CCN1C(=O)NCCC1CCN(Cc2ccccc2)CC1 [3-9, (2R)-N-[2-(1-benzylpiperidin-4-yl)ethyl]-2-methyl-4-[5-(trifluoromethyl)pyrimidin-2-yl]piperazine-1-carboxamide]	> 1000 nM	100 to 1000 nM	< 10 nM	100 to 1000 nM	10 to 100 nM
C[C@@H]1CN(c2ncc(C(F)(F)F)cc2F)CCN1C(=O)NCCC1CCN(Cc2ccccc2)CC1 [3-10, (2R)-N-[2-(1-benzylpiperidin-4-yl)ethyl]-4-[3-fluoro-5-(trifluoromethyl)pyridin-2-yl]-2-methylpiperazine-1-carboxamide]	> 1000 nM	100 to 1000 nM	< 10 nM	100 to 1000 nM	10 to 100 nM
C[C@@H]1CN(c2ccc3c(c2)OC(F)(F)O3)CCN1C(=O)NCCC1CCN(Cc2ccccc2)CC1 [4-6, (2R)-N-[2-(1-benzylpiperidin-4-yl)ethyl]-4-(2,2-difluoro-2H-1,3-benzodioxol-5-yl)-2-methylpiperazine-1-carboxamide]	> 1000 nM		< 10 nM	100 to 1000 nM	10 to 100 nM
C[C@@H]1CN(c2nccc(C#N)n2)C[C@H](C)N1C(=O)NCCC1CCN(Cc2ccccc2)CC1 [4-14, (2S,6R)-N-[2-(1-benzylpiperidin-4-yl)ethyl]-4-(4-cyanopyrimidin-2-yl)-2,6-dimethylpiperazine-1-carboxamide]	> 1000 nM		< 10 nM	> 1000 nM	100 to 1000 nM
C[C@@H]1CN(c2cccc(OC(F)(F)F)c2)CCN1C(=O)NCCC1CCN(Cc2ccccc2)CC1 [4-16, (2R)-N-[2-(1-benzylpiperidin-4-yl)ethyl]-2-methyl-4-[3-(trifluoromethoxy)phenyl]piperazine-1-carboxamide]	> 1000 nM		< 10 nM	100 to 1000 nM	100 to 1000 nM
C[C@@H]1CN(c2ncc(C#N)c(N)n2)C[C@H](C)N1C(=O)NCCC1CCN(Cc2ccccc2)CC1 [4-54, (2S,6R)-4-(4-amino-5-cyanopyrimidin-2-yl)-N-[2-(1-benzylpiperidin-4-yl)ethyl]-2,6-dimethylpiperazine-1-carboxamide]	> 1000 nM	> 1000 nM		100 to 1000 nM	100 to 1000 nM
C[C@@H]1CN(c2cc(F)cc(F)c2)CCN1C(=O)NCCC1CCN(Cc2ccccc2)CC1 [4-72, (2R)-N-[2-(1-benzylpiperidin-4-yl)ethyl]-4-(3,5-difluorophenyl)-2-methylpiperazine-1-carboxamide]	> 1000 nM		< 10 nM	100 to 1000 nM	100 to 1000 nM
C[C@@H]1CN(c2ncc(C#N)c(N)n2)C[C@H](C)N1C(=O)NCCC1CCN(Cc2ccccc2)CC1 [5-14, (2S,6R)-4-(4-amino-5-cyanopyrimidin-2-yl)-N-[2-(1-benzylpiperidin-4-yl)ethyl]-2,6-dimethylpiperazine-1-carboxamide]			< 10 nM	100 to 1000 nM	100 to 1000 nM
O=C(NCCC1CCN(Cc2ccccc2)CC1)c1ccc(-c2ccc(OC(F)(F)F)cc2)cc1 [9-70, N-[2-(1-benzylpiperidin-4-yl)ethyl]-4-[4-(trifluoromethoxy)phenyl]benzamide]				100 to 1000 nM	100 to 1000 nM
O=C(NCC(O)C1CCN(Cc2ccccc2)CC1)C1CCN(c2ccc(OC(F)(F)F)cc2)CC1 (centres unmarked) [9-71, N-[2-(1-benzylpiperidin-4-yl)-2-hydroxyethyl]-1-[4-(trifluoromethoxy)phenyl]piperidine-4-carboxamide]					100 to 1000 nM
O=C(NCCC1(O)CCN(Cc2ccccc2)CC1)C1CCN(c2ccc(OC(F)(F)F)c(F)c2)CC1 [9-72, N-[2-(1-benzyl-4-hydroxypiperidin-4-yl)ethyl]-1-[3-fluoro-4-(trifluoromethoxy)phenyl]piperidine-4-carboxamide]				100 to 1000 nM	100 to 1000 nM
CC1CN(c2ccc(OC(F)(F)F)cc2)CCC1C(=O)NCCC1CCN(Cc2ccccc2)CC1 (centres unmarked) [10-42, N-[2-(1-benzylpiperidin-4-yl)ethyl]-3-methyl-1-[4-(trifluoromethoxy)phenyl]piperidine-4-carboxamide]				100 to 1000 nM	100 to 1000 nM
O=C(NCCC1CCN(Cc2ccccc2)CC1)C1CCN(c2cc(F)c(F)c(F)c2)CC1 [10-43, N-[2-(1-benzylpiperidin-4-yl)ethyl]-1-(3,4,5-trifluorophenyl)piperidine-4-carboxamide]					100 to 1000 nM
O=C(NCCC1CCN(Cc2ccccc2)CC1)C1CCN(c2ccc(OC(F)(F)F)c(F)c2)CC1 [10-44, N-[2-(1-benzylpiperidin-4-yl)ethyl]-1-[3-fluoro-4-(trifluoromethoxy)phenyl]piperidine-4-carboxamide]					100 to 1000 nM
C[C@@H]1CN(c2ncc(C#N)cn2)C[C@H](C)N1C(=O)NCCC1CCN(Cc2ccccc2)CC1 [21-2, (2R,6S)-4-(5-cyanopyrimidin-2-yl)-2,6-dimethyl-N-(2-{1-[α,α-^2H-benzyl]piperidin-4-yl}ethyl)piperazine-1-carboxamide]	> 1000 nM	> 1000 nM	< 10 nM	> 1000 nM	
C[C@@H]1CN(c2ncc(C(F)(F)F)cn2)CCN1C(=O)NCCC1CCN(Cc2ccccc2)CC1 [21-14, (2R)-2-methyl-N-(2-{1-[α,α-^2H-benzyl]piperidin-4-yl}ethyl)-4-[5-(trifluoromethyl)pyrimidin-2-yl]piperazine-1-carboxamide]		100 to 1000 nM			
C[C@@H]1CN(c2ncc(C#N)cn2)C[C@H](C)N1C(=O)NCCC1CCN(Cc2ccccc2)CC1 [21-15, (2R,6S)-4-(5-cyanopyrimidin-2-yl)-2,6-dimethyl-N-(2-{1-[α,α-^2H-benzyl]piperidin-4-yl}ethyl)piperazine-1-carboxamide]	> 1000 nM	> 1000 nM	< 10 nM	> 1000 nM	
C[C@@H]1CN(c2ncc(C(F)(F)F)c(N)n2)CCN1C(=O)NCCC1CCN(Cc2ccccc2)CC1 [21-16, (2R)-4-[4-amino-5-(trifluoromethyl)pyrimidin-2-yl]-2-methyl-N-(2-{1-[α,α-^2H-benzyl]piperidin-4-yl}ethyl)piperazine-1-carboxamide]	100 to 1000 nM	10 to 100 nM	< 10 nM		< 10 nM
C[C@@H]1CN(c2ncc(C(F)(F)F)c(N)n2)CCN1C(=O)NCCC1CCN(Cc2ccccc2)CC1 [21-17, (2R)-4-[4-amino-5-(trifluoromethyl)pyrimidin-2-yl]-2-methyl-N-(2-{1-[α,α-^2H-benzyl]piperidin-4-yl}ethyl)piperazine-1-carboxamide]	100 to 1000 nM	10 to 100 nM	< 10 nM		< 10 nM
N-{2-[1-(2,2-dimethylpropyl)piperidin-4-yl]ethyl}-1-[4-(trifluoromethoxy)phenyl]piperidine-4-carboxamide [11-27]			100 to 1000 nM		
N-{2-[1-(2-hydroxy-1-phenylethyl)piperidin-4-yl]ethyl}-1-[4-(trifluoromethoxy)phenyl]piperidine-4-carboxamide [11-12]			100 to 1000 nM		
N-{2-[1-(3-methylbutyl)piperidin-4-yl]ethyl}-1-[4-(trifluoromethoxy)phenyl]piperidine-4-carboxamide [11-19]			100 to 1000 nM		
